Assay results: ChEMBL document CHEMBL1134716, “Synthesis and evaluation of GGPP geometric isomers: divergent substrate specificities of FTase and GGTase I” (Bioorg Med Chem Lett, 2001)

Key:
[1] = target: Protein farnesyltransferase (Homo sapiens) (UniProt P49354+P49356); test: Activity as substrate for recombinant mammalian Farnesyltransferase expressed in baculovirus; activity expressed as Vmax relative to the Vmax of E,E-FPP
[2] = test system: CC(C)=CCC/C(C)=C/CC/C(C)=C\CC/C(C)=C/COP(=O)(O)OP(=O)(O)O; test: (§1) Kinetic constant for recombinant mammalian Farnesyltransferase expressed in baculovirus by fluorescence assay
[3] = test system: CC(C)=CCC/C(C)=C/CC/C(C)=C\COP(=O)(O)OP(=O)(O)O; test: as §1
[4] = test system: CC(C)=CCC/C(C)=C\CC/C(C)=C/COP(=O)(O)OP(=O)(O)O; test: as §1
[5] = test system: CC(C)=CCC/C(C)=C/CC/C(C)=C/CC/C(C)=C\COP(=O)(O)OP(=O)(O)O; test: as §1

Compound | Krel [1] | other results
CC(C)=CCC/C(C)=C\CC/C(C)=C/COP(=O)(O)OP(=O)(O)O | 0.41 | 
Protein farnesyltransferase (Homo sapiens) (from UniProt P49354+P49356) |  | Km [2]: 0.481 µM; Km [3]: 0.225 µM; Km [4]: 0.136 µM; Km [5]: 0.021 µM

The next lines start with results.

Krel [1] | Compound | other results
0.67 | CC(C)=CCC/C(C)=C/CC/C(C)=C/CC/C(C)=C\COP(=O)(O)OP(=O)(O)O | 
0.4 | CC(C)=CCC/C(C)=C/CC/C(C)=C\CC/C(C)=C/COP(=O)(O)OP(=O)(O)O | 
0.47 | CC(C)=CCC/C(C)=C/CC/C(C)=C\COP(=O)(O)OP(=O)(O)O | 
